Experimental data as given in patent US10953027B2, “Active agents and methods of their use for the treatment of metabolic disorders and nonalcoholic fatty liver disease” (Flagship Pioneering Innovations V, Inc., priority 2018, dated 2021).

Assays:
Assay type in all cases: in vitro ADME
[1] = Assay 1. Stability in Simulated Gastric Fluid (SGF); conditions: 1 μM, 37° C., SGF pH 1.6 with pepsin
Method in brief: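 Acylated compounds at a final 1 μM (diluted from 1 mM DMSO stock) were incubated at 37 °C in SGF of pH 1.6 NaCl buffer with FaSSIF powder and 0.1 mg/mL pepsin. Aliquots were quenched with acetonitrile at T0 and regular intervals, and degradation rates were determined by LC/MS.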

[2] = Assay 2. Stability in Simulated Intestinal Fluid (SIF); conditions: 1 μM, 37° C., SIF pH 6.7 with pancreatin
Method in brief: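 Acylated compounds at 1 μM (from 1 mM DMSO stock) in fresh SIF: FaSSIF with pancreatin in pH 6.7 phosphate buffer, agitated at 37 °C. Aliquots from T0 onward quenched with 1 volume acetonitrile; LC/MS gives degradation rates.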

[3] = Assay 3. Fecal Incubation Stability; conditions: 1 or 10 μM, human fecal slurry, anaerobic

SMILES | Assay 1 (SGF) (% Remaining @ 1 hours) [1] | Assay 2 (SIF) (% @ Remaining 4 hours) [2] | Assay 3 (% Remaining at 24 h) [3]
CCC(=O)OC[C@H]1O[C@H](OC)[C@H](OC(=O)CC)[C@@H](OC(=O)CC)[C@H]1OC(=O)CC [Compound 90, [(2R,3S,4S,5R,6S)-6-methoxy-3,4,5-tris(propanoyloxy)oxan-2-yl]methyl Propanoate] | C (C: >75% of the tested compound remaining) | A (A: <25% of the tested compound remaining) | A (A: <25% of the tested compound remaining)
CCC(=O)O[C@@H]1[C@@H](OC(=O)CC)[C@@H](OC(=O)Cc2c[nH]c3ccccc23)OC[C@@H]1OC(=O)CC [Compound 140, (3S,4S,5R,6R)-6-{[2-(1H-indol-3-yl)acetyl]oxy}-4,5-bis(propanoyloxy)oxan-3-yl Propanoate] | C (C: >75% of the tested compound remaining) | A (A: <25% of the tested compound remaining) | A (A: <25% of the tested compound remaining)
CO[C@H]1O[C@H](COC(C)=O)[C@@H](OC(C)=O)[C@H](OC(C)=O)[C@@H]1OC(C)=O [Compound 193, (2R,3R,4S,5S,6S)-2-(acetoxymethyl)-6-methoxytetrahydro-2H-pyran-3,4,5-triyl Triacetate] | C (C: >75% of the tested compound remaining) | C (C: >75% of the tested compound remaining) | B (B: 25-75% of the tested compound remaining)
CCCC(=O)O[C@H]1[C@H](OC(=O)CCC)[C@H](OC(=O)CCc2c[nH]c3ccccc23)O[C@@H](C)[C@H]1OC(=O)CCC [Compound 117, (2S,3S,4R,5R,6S)-4,5-bis(butanoyloxy)-2-{[3-(1H-indol-3-yl)propanoyl]oxy}-6-methyloxan-3-yl Butanoate] | C (C: >75% of the tested compound remaining) | A (A: <25% of the tested compound remaining) | A (A: <25% of the tested compound remaining)
CCC(=O)O[C@@H]1[C@@H](OC(=O)CC)[C@@H](OC)OC[C@@H]1OC(=O)CC [Compound 86, (2S,3R,4S,5S)-2-methoxy-3,5-bis(propanoyloxy)oxan-4-yl Propanoate] | C (C: >75% of the tested compound remaining) | B (B: 25-75% of the tested compound remaining) | C (C: >75% of the tested compound remaining)
CCC(=O)O[C@@H]1[C@@H](OC(=O)CC)[C@@H](OC(=O)Cc2c[nH]c3ccccc23)OC[C@H]1OC(=O)CC [Compound 149, (2R,3R,4S,5R)-2-{[2-(1H-indol-3-yl)acetyl]oxy}-4,5-bis(propanoyloxy)oxan-3-yl Propanoate] | C (C: >75% of the tested compound remaining) | A (A: <25% of the tested compound remaining) | A (A: <25% of the tested compound remaining)
CCC(=O)O[C@@H]1[C@@H](OC(=O)CC)[C@H](OC(=O)CCc2c[nH]c3ccccc23)OC[C@@H]1OC(=O)CC [Compound 107, (2S,3R,4S,5S)-3,4,5-tris(propanoyloxy)oxan-2-yl 3-(1H-indol-3-yl)propanoate] | C (C: >75% of the tested compound remaining) | A (A: <25% of the tested compound remaining) | A (A: <25% of the tested compound remaining)
CCC(=O)O[C@H]1OC[C@@H](OC(=O)CC)[C@@H](OC(=O)CC)[C@H]1OC(=O)CC [Compound 133, (2R,3R,4R,5R)-3,4,5-tris(propanoyloxy)oxan-2-yl Propanoate] | C (C: >75% of the tested compound remaining) | A (A: <25% of the tested compound remaining) | A (A: <25% of the tested compound remaining)
CCC(=O)OC[C@H]1O[C@@H](OC(=O)CCc2c[nH]c3ccccc23)[C@H](OC(=O)CC)[C@@H](OC(=O)CC)[C@@H]1OC(=O)CC [Compound 144, [(2R,3R,4S,5R,6S)-6-{[3-(1H-indol-3-yl)propanoyl]oxy}-3,4,5-tris(propanoyloxy)oxan-2-yl]methyl Propanoate] | C (C: >75% of the tested compound remaining) | A (A: <25% of the tested compound remaining) | A (A: <25% of the tested compound remaining)
CCC(=O)O[C@H]1[C@H](OC(=O)CCc2c[nH]c3ccccc23)OC[C@@H](OC(=O)CC)[C@H]1OC(=O)CC [Compound 130, (2S,3R,4R,5R)-3,4,5-tris(propanoyloxy)oxan-2-yl 3-(1H-indol-3-yl)propanoate] | B (B: 25-75% of the tested compound remaining) | A (A: <25% of the tested compound remaining) | A (A: <25% of the tested compound remaining)
CCC(=O)O[C@@H]1[C@@H](OC(=O)CC)[C@@H](OC(=O)CCc2c[nH]c3ccccc23)OC[C@@H]1OC(=O)CC [Compound 158, (2R,3R,4S,5S)-3,4,5-tris(propanoyloxy)oxan-2-yl 3-(1H-indol-3-yl)propanoate] | C (C: >75% of the tested compound remaining) | A (A: <25% of the tested compound remaining) | A (A: <25% of the tested compound remaining)
CCC(=O)O[C@@H]1OC[C@@H](OC(=O)CC)[C@@H](OC(=O)CC)[C@H]1OC(=O)CC [Compound 136, (2S,3R,4R,5R)-3,4,5-tris(propanoyloxy)oxan-2-yl Propanoate] | C (C: >75% of the tested compound remaining) | A (A: <25% of the tested compound remaining) | A (A: <25% of the tested compound remaining)
CCC(=O)O[C@@H]1[C@@H](OC(=O)CC)[C@@H](OC(=O)/C=C/c2c[nH]c3ccccc23)OC[C@H]1OC(=O)CC [Compound 125, (2R,3R,4S,5R)-3,4,5-tris(propanoyloxy)oxan-2-yl (2E)-3-(1H-indol-3-yl)prop-2-enoate] | C (C: >75% of the tested compound remaining) | A (A: <25% of the tested compound remaining) | A (A: <25% of the tested compound remaining)
CCC(=O)O[C@@H]1[C@@H](OC(=O)CC)[C@H](OC)OC[C@H]1OC(=O)CC [Compound 106, (2R,3R,4S,5R)-2-methoxy-4,5-bis(propanoyloxyoxan-3-yl Propanoate] | C (C: >75% of the tested compound remaining) | A (A: <25% of the tested compound remaining) | A (A: <25% of the tested compound remaining)
